Values quoted from earlier work in US20060257434A1, “Production of emulsions of pharmaceutical compositions” (priority 2005, published 2006).

Conditions: over a physiological pH range

solubility: less than 1 μg/ml
SMILES: CCCn1c(=O)c2[nH]c(C34CC5CC(CC3C5)C4)nc2n(CCC)c1=O [KW-3902, 8-(3-noradamantyl)-1,3-dipropylxanthine]
